Assay results taken from ChEMBL document CHEMBL1201862, “PubChem BioAssay data set” (2004).
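Assay format: 96-well plates, 48-hour exposure. GI50 = concentration required for 50% inhibition of growth.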 Activity calls are given as the source filed them. No stated cut-off is given here; in the data, active = GI50 up to about 1.1 µM and inactive = higher.

Assays:
Assay in all cases: NCI anticancer screen, dose series, 48 h
NCI-H460 = tested on: NCI-H460
A498 = tested on: A498
SW-620 = tested on: SW-620
ACHN = tested on: ACHN
M14 = tested on: M14
SF-539 = tested on: SF-539
786-0 = tested on: 786-0
U-251 = tested on: U-251
KM-20L2 = tested on: KM-20L2
SK-MEL-28 = tested on: SK-MEL-28
Hs-578T = tested on: Hs-578T
SNB-19 = tested on: SNB-19
RPMI-8226 = tested on: RPMI-8226
NCI-H226 = tested on: NCI-H226
Malme-3M = tested on: Malme-3M
SR = tested on: SR
PC-3 = tested on: PC-3
MDA-N = tested on: MDA-N
KM12 = tested on: KM12
RXF 393 = tested on: RXF 393

Row | Structure (SMILES) | GI50 (NCI-H460) | GI50 (A498) | GI50 (SW-620) | GI50 (ACHN) | GI50 (M14) | GI50 (SF-539) | GI50 (786-0) | GI50 (U-251) | GI50 (KM-20L2) | GI50 (SK-MEL-28) | GI50 (Hs-578T) | GI50 (SNB-19) | GI50 (RPMI-8226) | GI50 (NCI-H226) | GI50 (Malme-3M) | GI50 (SR) | GI50 (PC-3) | GI50 (MDA-N) | GI50 (KM12) | GI50 (RXF 393)
1 | COc1ccc(/C=C2\CCCCC2=O)cc1 | > 100 µM (inactive) | > 100 µM (inactive) | > 100 µM (inactive) | > 100 µM (inactive) | > 100 µM (inactive) | > 100 µM (inactive) | > 100 µM (inactive) | > 100 µM (inactive) | > 100 µM (inactive) | > 100 µM (inactive) |  |  |  |  |  |  |  |  |  | 
2 | CC(C)CCNC(=O)c1ccc(CNC(=O)/C=C/c2ccc3c(c2)-c2ccccc2C3)cc1 | 57.4 µM (inactive) | > 100 µM (inactive) | 44.8 µM (inactive) | 57.4 µM (inactive) | 74.3 µM (inactive) | > 100 µM (inactive) | 33.9 µM (inactive) | 24.7 µM (inactive) |  | 34 µM (inactive) | 26.9 µM (inactive) | > 100 µM (inactive) | 44 µM (inactive) | 60 µM (inactive) | 17.3 µM (inactive) | 34.9 µM (inactive) | 42.9 µM (inactive) | 62.8 µM (inactive) | 33.3 µM (inactive) | 39.1 µM (inactive)
3 | CC12OC1(C)C1C(=O)OCC1C2=O (stereo unspecified) | > 100 µM (inactive) | > 100 µM (inactive) | 45.9 µM (inactive) | 62.1 µM (inactive) | 49.4 µM (inactive) | 32.5 µM (inactive) | 70 µM (inactive) | > 100 µM (inactive) |  | > 100 µM (inactive) | 22.1 µM (inactive) | 61.1 µM (inactive) | > 100 µM (inactive) | 45.9 µM (inactive) | 17.6 µM (inactive) | 21 µM (inactive) | 52.8 µM (inactive) | > 100 µM (inactive) | 44.7 µM (inactive) | 31.8 µM (inactive)
4 | COc1ccc2c(c1)CCc1cc(C(N)=O)c3nnnn3c1-2 | 12.2 µM (inactive) | 18.2 µM (inactive) | > 100 µM (inactive) | 30.5 µM (inactive) | > 100 µM (inactive) | 78.7 µM (inactive) | 33.6 µM (inactive) | 23.6 µM (inactive) |  | > 100 µM (inactive) | 0.408 µM (active) | 64.7 µM (inactive) | > 100 µM (inactive) | > 100 µM (inactive) | 18.2 µM (inactive) | > 100 µM (inactive) | > 57.9 µM (inactive) | > 100 µM (inactive) | > 100 µM (inactive) | 16.9 µM (inactive)
5 | NC(CSS(=O)(=O)c1ccccc1)C(=O)O (stereo unspecified) | > 10 µM (inactive) | > 10 µM (inactive) | > 10 µM (inactive) | > 10 µM (inactive) | > 10 µM (inactive) | > 10 µM (inactive) | > 10 µM (inactive) | > 10 µM (inactive) |  | > 10 µM (inactive) | > 10 µM (inactive) | > 10 µM (inactive) | > 10 µM (inactive) | > 10 µM (inactive) | > 10 µM (inactive) | > 10 µM (inactive) | > 10 µM (inactive) | > 10 µM (inactive) | > 10 µM (inactive) | > 10 µM (inactive)
6 | O=C1NC(=O)C(COCc2ccccc2)C2=C1SCCC2 (stereo unspecified) | > 100 µM (inactive) | > 100 µM (inactive) | > 100 µM (inactive) | > 100 µM (inactive) | > 100 µM (inactive) | > 100 µM (inactive) | > 100 µM (inactive) | > 100 µM (inactive) |  | > 100 µM (inactive) | > 100 µM (inactive) | > 100 µM (inactive) | > 100 µM (inactive) | > 100 µM (inactive) | > 100 µM (inactive) | > 100 µM (inactive) | > 100 µM (inactive) | > 100 µM (inactive) | > 100 µM (inactive) | > 100 µM (inactive)
7 | O=c1[nH]c2cc([N+](=O)[O-])ccc2nc1/C(=N/Nc1ccccc1)C(O)c1ccccc1Cl (stereo unspecified) | 49.2 µM (inactive) |  | 41.9 µM (inactive) | 17.5 µM (inactive) | 47.3 µM (inactive) | 44.9 µM (inactive) | > 100 µM (inactive) | 58.6 µM (inactive) | 14.9 µM (inactive) | > 100 µM (inactive) |  | > 100 µM (inactive) | 52.4 µM (inactive) | 80.2 µM (inactive) | 85.3 µM (inactive) |  |  |  | 27.8 µM (inactive) | > 100 µM (inactive)
8 | CCOC(=O)c1sc2nc(SC)nc3c2c1NCN3c1ccc2c(c1)OCCCO2 | 25.7 µM (inactive) | 7.98 µM (inactive) | 8.71 µM (inactive) | 32.1 µM (inactive) | 38.2 µM (inactive) | 13.9 µM (inactive) | 6.31 µM (inactive) | 7.57 µM (inactive) |  | 56.1 µM (inactive) | 2.57 µM (inactive) | 8.09 µM (inactive) | > 100 µM (inactive) | 3.53 µM (inactive) | > 100 µM (inactive) | > 100 µM (inactive) | > 100 µM (inactive) | > 100 µM (inactive) | 4.18 µM (inactive) | 11.7 µM (inactive)
9 | N#CC12CC3=C(N=C1NC1=C(CCc4ccccc41)C2)c1ccccc1CC3 (stereo unspecified) | 3.06 µM (inactive) | 1.8 µM (inactive) | 0.871 µM (active) | 6.59 µM (inactive) | 2.76 µM (inactive) | 2.53 µM (inactive) | 3.42 µM (inactive) | 1.58 µM (inactive) |  | 4.06 µM (inactive) | 4.83 µM (inactive) | 3.95 µM (inactive) | 0.993 µM (active) | 3.73 µM (inactive) | 1.71 µM (inactive) | 0.255 µM (active) | 2.12 µM (inactive) | 0.258 µM (active) | 0.938 µM (active) | 3.4 µM (inactive)
10 | CCOC(=O)/C1=C(\C)N(Cc2ccccc2)C(=O)c2ccccc2C(=O)c2c(O)ccc(O)c21 | > 100 µM (inactive) | > 100 µM (inactive) | > 100 µM (inactive) | > 100 µM (inactive) | > 100 µM (inactive) | > 100 µM (inactive) | > 100 µM (inactive) | > 100 µM (inactive) |  | > 100 µM (inactive) | > 100 µM (inactive) | > 100 µM (inactive) | 66.7 µM (inactive) | > 100 µM (inactive) | > 100 µM (inactive) | > 100 µM (inactive) | > 100 µM (inactive) | > 100 µM (inactive) | > 100 µM (inactive) | 17.5 µM (inactive)
11 | Cc1cc(S(=O)(=O)Nc2nnc3c(C(F)(F)F)cc(Cl)cn23)c(S)cc1Cl | 45.3 µM (inactive) | > 100 µM (inactive) | > 100 µM (inactive) | 48.2 µM (inactive) | 67.1 µM (inactive) | > 100 µM (inactive) | > 100 µM (inactive) | 46.6 µM (inactive) |  | > 100 µM (inactive) | > 100 µM (inactive) | 38.2 µM (inactive) | > 100 µM (inactive) | > 100 µM (inactive) | > 100 µM (inactive) | 81.7 µM (inactive) | > 100 µM (inactive) | > 100 µM (inactive) | 94.8 µM (inactive) | > 100 µM (inactive)
